Laboratory results reported in ChEMBL document CHEMBL1130834, “2(1H)-quinolinone derivatives as novel anti-arteriostenotic agents showing anti-thrombotic and anti-hyperplastic activities” (Bioorg Med Chem Lett, 1998).
pIC50: −log10 of the molar value.

Experiments:
Oryctolagus cuniculus [1] = species on record: Oryctolagus cuniculus; test: In vitro inhibitory activity against collagen induced rabbit platelet aggregation; format: functional
Rattus norvegicus [2] = test: In vivo anti-hyperplastic activity was evaluated by the inhibition of balloon injury model in rats at a dose of 30 mg/kg (p.o.); format: functional; details: for inhibition in vivo at 30 mg/kg: Rattus norvegicus, po
[3] = (§1) In vitro inhibitory activity against Adenosine diphosphate (ADP) induced rabbit platelet aggregation; format: functional, Oryctolagus cuniculus
Mus musculus [4] = test: In vivo anti-thrombotic activity was evaluated by the inhibition of pulmonary thromboembolism model in mice at a dose of 30 mg/kg (p.o.); format: functional; details: route oral
Rattus norvegicus [5] = test: In vivo anti-hyperplastic activity was evaluated by the inhibition of balloon injury model in rats at a dose of 10 mg/kg (p.o.); format: functional; details: route oral
Mus musculus [6] = test: In vivo anti-thrombotic activity was evaluated by the inhibition of pulmonary thromboembolism model in mice at a dose of 10 mg/kg (p.o.); format: functional; details: route oral
Oryctolagus cuniculus [7] = species on record: Oryctolagus cuniculus; test: as §1; format: functional

Row | Structure (SMILES) | pIC50 (Oryctolagus cuniculus [1]; Oryctolagus cuniculus) | inhibition in vivo at 30 mg/kg (Rattus norvegicus [2]) | pIC50 ([3]; Oryctolagus cuniculus) | inhibition in vivo at 30 mg/kg (Mus musculus [4]) | inhibition in vivo at 10 mg/kg (Rattus norvegicus [5]) | inhibition in vivo at 10 mg/kg (Mus musculus [6]) | pIC50 (Oryctolagus cuniculus [7]) | pIC50 (Oryctolagus cuniculus [1]) | Inhibition (Rattus norvegicus [2]; route oral, 30 mg/kg) | pIC50 [3]
1 | O=C(NCCCOc1ccc2nc(O)ccc2c1)N(C1CCCCCC1)[C@H]1CCCC[C@@H]1O | 7.52 | 11% | 6.92 | 69% |  |  |  |  |  | 
2 | O=C(NCCCOc1ccc2nc(O)ccc2c1)N(C1CC1)[C@H]1CCCC[C@@H]1O | 5.66 | 13% | 5.62 | 100% | 1% | 29% |  |  |  | 
3 | O=C(NCCCOc1ccc2nc(O)ccc2c1)N(C1CC1)[C@@H]1CCC[C@H]1O | 5.46 | 23% | 5.60 | 67% |  |  |  |  |  | 
4 | CCN(CCCOc1ccc2nc(O)ccc2c1)C(=O)N(C)C1CCCCC1 | 4.80 | 12% | 4.82 | 58% |  |  |  |  |  | 
5 | O=C(NCCCOc1ccc2nc(O)ccc2c1)N(C1CC1)[C@H]1CCCC[C@H]1O | 5.48 | 19% | 5.64 | 100% |  |  |  |  |  | 
6 | CCCCO[C@H]1CCCC[C@@H]1N(C(=O)NCCCOc1ccc2nc(O)ccc2c1)C1CC1 | 5.46 | 19% | 6.15 | 33% |  |  |  |  |  | 
7 | O=C(NCCCOc1ccc2nc(O)ccc2c1)N(C1CC1)[C@@H]1CCC[C@@H](O)C1 | 5.55 | 0% | 5.52 | 20% |  |  |  |  |  | 
8 | O=C(NCCCOc1ccc2nc(O)ccc2c1)N(C1CCCCCCC1)[C@H]1CCCC[C@@H]1O | 7.52 | 27% | 7.10 | 100% |  |  |  |  |  | 
9 | CN(C(=O)NCCCOc1ccc2nc(O)ccc2c1)[C@@H]1CCCC[C@H]1O | 4.82 | 10% | 5.41 | 18% |  |  |  |  |  | 
10 | O=C(NCCCOc1ccc2nc(O)ccc2c1)N(C1CCCCC1)C1CC1 | 5.62 | 15% | 5.66 | 100% |  |  |  |  |  | 
11 | O=C(NCCCOc1ccc2nc(O)ccc2c1)N(C1CCCCC1)[C@H]1CCCC[C@@H]1O | 6.82 | 18% | 6.72 | 57% |  |  |  |  |  | 
12 | O=C(NCCCOc1ccc2nc(O)ccc2c1)N(C1CCCC1)[C@H]1CCCC[C@@H]1O | 5.74 | 20% | 6.57 | 78% |  |  |  |  |  | 
13 | CN(C(=O)NCCCOc1ccc2nc(O)ccc2c1)C1CCCCC1 | 5.57 | 15% |  | 21% |  |  | 5.59 |  |  | 
14 | O=C(NCCCOc1ccc2nc(O)ccc2c1)N(C1CC1)[C@@H]1CCCCC[C@H]1O | 5.55 | 0% | 5.59 | 44% |  |  |  |  |  | 
15 | O=C(NCCCOc1ccc2nc(O)ccc2c1)N(C1CC1)[C@H]1CC[C@H](O)CC1 | 5.51 | 7% | 5.42 | 0% |  |  |  |  |  | 
16 | O=C(NCCCOc1ccc2[nH]c(=O)ccc2c1)N(C1CC1)[C@@H]1CCCC[C@H]1O (stereo in doubt; 1d) [K-134] |  |  |  |  |  |  |  | 5.51 | 29% | 5.60
17 | O=C(NCCCOc1ccc2[nH]c(=O)ccc2c1)N(C1CC1)[C@@H]1CCCC[C@H]1O (stereo in doubt; 1p) [K-134] | 5.66 | 24% | 5.64 | 100% | 26% | 88% |  |  |  | 
18 | CC(=O)Oc1ccccc1C(=O)O [ASPIRIN] | < 3.00 | 16% | < 3.00 | 33% |  |  |  |  |  | 
19 | CN(C(=O)CCCOc1ccc2[nH]c(=O)ccc2c1)C1CCCCC1 [CILOSTAMIDE] | 5.66 | 42% | 5.62 | 84% |  |  |  |  |  | 
20 | O=C1CCc2cc(OCCCCc3nnnn3C3CCCCC3)ccc2N1 [CILOSTAZOL] | 4.51 | 12% | 4.54 | 82% |  |  |  |  |  | 
